Tested on: H2122
Assay: Cell viability dose-response, H2122
Assay type: cell-based, human
Conditions: Homo sapiens, NCI-H2122, 12-point dose-response starting at 50 micromolar, 3-fold increments, in duplicate; read-out: toxicity data, H2122
Procedure, shortened: (§1)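 Cells plated at 15% confluence in RPMI-1640 with 5% FBS and 2 mM L-glutamine, treated with compound in a 12-point, 3-fold dilution series from 50 micromolar, in duplicate. ATP measured by Cell Titer Glo after 4 days; IC50 taken from the dose-response curve.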

Row | Structure (SMILES) | IC50
1 | COc1ccc(CCNC(=O)NC(=O)c2ccc(-c3ccncc3)cc2)cc1 [SW208404-1-A] | 21.8 µM
2 | COc1ccc(CCNC(=O)NC(=O)c2ccc(C(=O)N3CCOCC3)cc2)cc1 [SW208408-1-A] | ≥ 49.5 µM
3 | COc1ccc(CCNC(=O)NC(=O)c2ccc(C(=O)Nc3ccccc3OC)cc2)cc1 [SW208409-1-A] | 0.14 µM
4 | COc1ccc(CCNC(=O)NC(=O)c2ccc(C(=O)Nc3cccc(OC)c3)cc2)cc1 [SW208410-1-A] | ≥ 49.5 µM
5 | COc1ccc(CCNC(=O)NC(=O)c2ccc(C(=O)Nc3ccc(OC)cc3)cc2)cc1 [SW208411-1-A] | ≥ 49.5 µM
6 | COc1ccc(CCNC(=O)NC(=O)c2ccc(C(=O)NCc3ccccc3)cc2)cc1 [SW208412-1-A] | 0.27 µM
7 | CNC(=O)c1ccc(C(=O)NC(=O)NCCc2ccc(OC)cc2)cc1 [SW208413-1-A] | ≥ 49.5 µM
8 | COc1ccc(CCNC(=O)NC(=O)c2ccc(C(=O)N3CCN(C)CC3)cc2)cc1 [SW208414-1-A] | ≥ 49.5 µM
9 | COc1ccc(CCNC(=O)NC(=O)c2ccc(C(=O)NC3CC3)cc2)cc1 [SW208452-1-A] | ≥ 49.5 µM
10 | COc1ccc(CCNC(=O)NC(=O)c2ccc(C(=O)NC3CCC3)cc2)cc1 [SW208453-1-A] | 0.864 µM

Same assay, conditions: Homo sapiens, NCI-H2122, Table 8; 12-point dose-response starting at 50 micromolar

Row | Structure (SMILES) | AC50
11 | O=c1c(Oc2ccccc2F)coc2cc(OCc3cn(-c4ccccc4)nn3)ccc12 [SW208232] | ≥ 49.5 µM
12 | O=c1c(-c2ccccn2)coc2cc(OCc3cnn(-c4ccccc4)c3)ccc12 [SW208732] | ≥ 49.5 µM
13 | COc1cccc(-c2coc3cc(OCc4cnn(-c5ccccc5)c4)ccc3c2=O)c1 [SW208733] | 0.74 µM
14 | O=c1c(-c2ccccc2F)coc2cc(OCc3cnn(-c4ccccc4)c3)ccc12 [SW208734] | ≥ 49.5 µM
15 | O=c1c(-c2cccc(F)c2)coc2cc(OCc3cnn(-c4ccccc4)c3)ccc12 [SW208735] | 0.55 µM
16 | O=c1c(-c2ccc(F)cc2)coc2cc(OCc3cnn(-c4ccccc4)c3)ccc12 [SW208737] | 0.27 µM
17 | O=c1c(Oc2ccccc2Br)coc2cc(OCc3cnn(-c4ccccc4)c3)ccc12 [SW 208585-1] | 0.1 µM

Same assay, conditions: Homo sapiens, NCI-H2122, Table 9, competitor; read-out: IC50 to H2122 cells

Row | Structure (SMILES) | IC50
18 | O=C(Nc1nc2ccc(O)cc2s1)c1ccc(C(=O)c2ccccc2)cc1 [SW202864-1] | 0.256 µM
19 | COc1ccc(CCNC(=O)NC(=O)c2ccc(C(=O)NCc3ccccc3)cc2)cc1 [SW208412-1-A] | 0.277 µM

Same assay, conditions: Homo sapiens, NCI-H2122, Tables 3 and 4; read-out: IC50 (uM) vs indicated non-small cell lung cancer cell line H2122

Row | Structure (SMILES) | IC50
20 | O=C(Nc1nc2ccc(O)cc2s1)c1ccc(C(=O)c2ccccc2)cc1 [SW202864-1] | 30.8 µM
21 | COc1ccc2nc(NC(=O)c3ccc(C(=O)c4ccccc4)cc3)sc2n1 [SW208233-1] | ≥ 49.5 µM
22 | C#CCOc1ccc2nc(NC(=O)c3ccc(C4(C(F)(F)F)N=N4)cc3)sc2c1 [SW208700-1] | 7.92 µM
23 | O=C(Nc1nc2c(s1)CCCC2)c1ccc(C(=O)c2ccccc2)cc1 [SW208741-1] | 0.22 µM

Same assay, conditions: Table 8; 12-point dose-response starting at 50 micromolar

Row | Structure (SMILES) | AC50
24 | O=c1c(Oc2ccccc2F)coc2cc(OCc3cnn(-c4ccccc4)c3)ccc12 [SW043139-2-A] | 0.292 µM

Tested on: H1819
Assay: Cell viability dose-response, H1819
Assay type: cell-based, human
Conditions: Homo sapiens, NCI-H1819, Tables 3 and 4; read-out: IC50 (uM) vs indicated non-small cell lung cancer cell line H1819
Procedure, shortened: as §1

Row | Structure (SMILES) | IC50
25 | Nc1nc2cc([N+](=O)[O-])ccc2s1 [SW053525] | 182 µM

Tested on: H2009
Assay: Cell viability dose-response, H2009
Assay type: cell-based, human
Conditions: Homo sapiens, NCI-H2009, Table 8; 12-point dose-response starting at 50 micromolar
Experimental: (§2) FIG. 6A. […] Cell viability is plotted vs. compound concentration. Compound was added to cells plated at 15% confluence in 96-well plates in RPMI-1640 media supplemented with 5% Fetal Bovine Serum and 2 mM L-Glutamine. After 4 days of incubation, ATP levels were measured using Cell Titer Glo (Promega). Data are presented as the average of 2 replicates ±SEM.
(§3) Selectivity may be measured by the half maximal inhibitory concentration (IC50), which, as used herein, is a measure of the effectiveness of a compound in killing cells. This quantitative measure indicates how much of a particular compound is needed to kill a particular cell population by half (e.g., as indicated by the amount of ATP). […] The IC50 can be determined by constructing a dose-response curve. The lower the IC50, the higher the potency, and the greater the difference between IC50 values for different cell lines (e.g., sensitive lines vs. insensitive lines, and sensitive lines vs. normal lines) the greater the selectivity. […]
(§4) With this information, we synthesized and tested a series of small molecules derived in conception from the oxalamide and chromone scaffold including N-acyl ureas, as shown in Tables 6-8. Each compound was tested in a 12-point dose-response study starting at 50 micromolar and decreasing in 3-fold increments to sub-nanomolar concentrations, in duplicate. Additionally, one or more additional cell line was tested in the same way.

Row | Structure (SMILES) | AC50
26 | O=c1c(Oc2ccccc2F)coc2cc(OCc3cn(-c4ccccc4)nn3)ccc12 [SW208232] | 49.5 µM
27 | O=c1c(Oc2ccccc2Br)coc2cc(OCc3cnn(-c4ccccc4)c3)ccc12 [SW 208585-1] | 35 µM

Same assay, conditions: Homo sapiens, NCI-H2009; 12-point dose-response starting at 50 micromolar, 3-fold increments, in duplicate; read-out: toxicity data, H2009

Row | Structure (SMILES) | IC50
28 | COc1ccc(CCNC(=O)NC(=O)c2ccc(-c3ccncc3)cc2)cc1 [SW208404-1-A] | ≥ 49.5 µM
29 | COc1ccc(CCNC(=O)NC(=O)c2ccc(C(=O)N3CCOCC3)cc2)cc1 [SW208408-1-A] | 46.9 µM
30 | COc1ccc(CCNC(=O)NC(=O)c2ccc(C(=O)Nc3ccccc3OC)cc2)cc1 [SW208409-1-A] | ≥ 49.5 µM
31 | COc1ccc(CCNC(=O)NC(=O)c2ccc(C(=O)Nc3cccc(OC)c3)cc2)cc1 [SW208410-1-A] | 1.37 µM
32 | COc1ccc(CCNC(=O)NC(=O)c2ccc(C(=O)Nc3ccc(OC)cc3)cc2)cc1 [SW208411-1-A] | ≥ 49.5 µM
33 | COc1ccc(CCNC(=O)NC(=O)c2ccc(C(=O)NCc3ccccc3)cc2)cc1 [SW208412-1-A] | 2.14 µM
34 | CNC(=O)c1ccc(C(=O)NC(=O)NCCc2ccc(OC)cc2)cc1 [SW208413-1-A] | 16.3 µM
35 | COc1ccc(CCNC(=O)NC(=O)c2ccc(C(=O)N3CCN(C)CC3)cc2)cc1 [SW208414-1-A] | 5.05 µM
36 | COc1ccc(CCNC(=O)NC(=O)c2ccc(C(=O)NC3CC3)cc2)cc1 [SW208452-1-A] | 13.1 µM
37 | COc1ccc(CCNC(=O)NC(=O)c2ccc(C(=O)NC3CCC3)cc2)cc1 [SW208453-1-A] | 1.63 µM

Same assay, conditions: Homo sapiens, NCI-H2009; Tables 3 and 4; read-out: IC50 (uM) vs indicated non-small cell lung cancer cell line H2009

Row | Structure (SMILES) | IC50
38 | Nc1nc2cc([N+](=O)[O-])ccc2s1 [SW053525] | 1530 µM
39 | COc1ccc2nc(NC(=O)c3ccc(C(=O)c4ccccc4)cc3)sc2n1 [SW208233-1] | 49.5 µM

Same assay, conditions: Table 8; 12-point dose-response starting at 50 micromolar

Row | Structure (SMILES) | AC50
40 | O=c1c(Oc2ccccc2F)coc2cc(OCc3cnn(-c4ccccc4)c3)ccc12 [SW043139-2-A] | 15.9 µM

Tested on: HCC44
Assay: Cell viability dose-response, HCC44
Assay type: cell-based, human
Conditions: Homo sapiens, HCC44, 12-point dose-response starting at 50 micromolar, 3-fold increments, in duplicate; read-out: toxicity data, HCC44
Experimental: as §2, §3, §4

Row | Structure (SMILES) | IC50
41 | COc1ccc(CCNC(=O)NC(=O)c2ccc(-c3ccncc3)cc2)cc1 [SW208404-1-A] | ≥ 49.5 µM
42 | COc1ccc(CCNC(=O)NC(=O)c2ccc(C(=O)N3CCOCC3)cc2)cc1 [SW208408-1-A] | ≥ 49.5 µM
43 | COc1ccc(CCNC(=O)NC(=O)c2ccc(C(=O)Nc3ccccc3OC)cc2)cc1 [SW208409-1-A] | ≥ 49.5 µM
44 | COc1ccc(CCNC(=O)NC(=O)c2ccc(C(=O)Nc3cccc(OC)c3)cc2)cc1 [SW208410-1-A] | ≥ 49.5 µM
45 | COc1ccc(CCNC(=O)NC(=O)c2ccc(C(=O)Nc3ccc(OC)cc3)cc2)cc1 [SW208411-1-A] | ≥ 49.5 µM
46 | COc1ccc(CCNC(=O)NC(=O)c2ccc(C(=O)NCc3ccccc3)cc2)cc1 [SW208412-1-A] | ≥ 49.5 µM
47 | CNC(=O)c1ccc(C(=O)NC(=O)NCCc2ccc(OC)cc2)cc1 [SW208413-1-A] | ≥ 49.5 µM
48 | COc1ccc(CCNC(=O)NC(=O)c2ccc(C(=O)N3CCN(C)CC3)cc2)cc1 [SW208414-1-A] | ≥ 49.5 µM
49 | COc1ccc(CCNC(=O)NC(=O)c2ccc(C(=O)NC3CC3)cc2)cc1 [SW208452-1-A] | ≥ 49.5 µM
50 | COc1ccc(CCNC(=O)NC(=O)c2ccc(C(=O)NC3CCC3)cc2)cc1 [SW208453-1-A] | ≥ 49.5 µM

Same assay, conditions: Homo sapiens, HCC44, Table 8; 12-point dose-response starting at 50 micromolar

Row | Structure (SMILES) | AC50
51 | O=c1c(Oc2ccccc2F)coc2cc(OCc3cn(-c4ccccc4)nn3)ccc12 [SW208232] | 49.5 µM
52 | O=c1c(-c2ccccn2)coc2cc(OCc3cnn(-c4ccccc4)c3)ccc12 [SW208732] | 49.5 µM
53 | COc1cccc(-c2coc3cc(OCc4cnn(-c5ccccc5)c4)ccc3c2=O)c1 [SW208733] | 49.5 µM
54 | O=c1c(-c2ccccc2F)coc2cc(OCc3cnn(-c4ccccc4)c3)ccc12 [SW208734] | 49.5 µM
55 | O=c1c(-c2cccc(F)c2)coc2cc(OCc3cnn(-c4ccccc4)c3)ccc12 [SW208735] | 49.5 µM
56 | O=c1c(-c2ccc(F)cc2)coc2cc(OCc3cnn(-c4ccccc4)c3)ccc12 [SW208737] | 49.5 µM

Same assay, conditions: Homo sapiens, HCC44, Tables 3 and 4; read-out: IC50 (uM) vs indicated non-small cell lung cancer cell line HCC44

Row | Structure (SMILES) | IC50
57 | O=C(Nc1nc2ccc(O)cc2s1)c1ccc(C(=O)c2ccccc2)cc1 [SW202864-1] | 38.6 µM
58 | COc1ccc2nc(NC(=O)c3ccc(C(=O)c4ccccc4)cc3)sc2n1 [SW208233-1] | 49.5 µM
59 | C#CCOc1ccc2nc(NC(=O)c3ccc(C4(C(F)(F)F)N=N4)cc3)sc2c1 [SW208700-1] | 49.5 µM
60 | O=C(Nc1nc2c(s1)CCCC2)c1ccc(C(=O)c2ccccc2)cc1 [SW208741-1] | 3.64 µM

Same assay, conditions: Table 8; 12-point dose-response starting at 50 micromolar

Row | Structure (SMILES) | AC50
61 | O=c1c(Oc2ccccc2F)coc2cc(OCc3cnn(-c4ccccc4)c3)ccc12 [SW043139-2-A] | 49.5 µM

— patent US9789096B2, “Methods and compositions for selective and targeted cancer therapy” (Board of Regents of the University of Texas System, priority 2013, dated 2017)
